These are literature values, as cited in patent US20080234335A1, “Cyclohexene Compounds” (priority 2003, published 2008).

Data set [1] concerns the target T1, EP1 receptor (Rattus norvegicus, UniProt P70597).
T1 sequence (P70597 1-405): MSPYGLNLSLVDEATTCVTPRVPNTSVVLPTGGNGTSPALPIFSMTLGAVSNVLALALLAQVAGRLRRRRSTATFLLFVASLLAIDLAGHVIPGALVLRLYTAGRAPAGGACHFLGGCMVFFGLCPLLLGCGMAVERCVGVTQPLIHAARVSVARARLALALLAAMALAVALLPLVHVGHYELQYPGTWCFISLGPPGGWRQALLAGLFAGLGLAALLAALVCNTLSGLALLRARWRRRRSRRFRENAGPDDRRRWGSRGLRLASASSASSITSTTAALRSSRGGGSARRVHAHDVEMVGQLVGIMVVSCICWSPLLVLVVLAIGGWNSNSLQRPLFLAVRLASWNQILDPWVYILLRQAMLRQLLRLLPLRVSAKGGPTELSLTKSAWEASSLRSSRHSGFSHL
On the set-up: host or cells: live rat (in vivo). The following applies: rat model of chronic constriction injury.

In data set [2] the target is T1, EP1 receptor. More on the design: host or cells: live rodent (in vivo). The following applies: rodent model of post-operative pain.

With `Cc1cc(Cl)ccc1S(=O)(=O)NC[C@H]1C2CCC(CC2)[C@@H]1/C=C\CCCC(=O)O` [ONO-8711], in data set [1], the “effect on hyperalgesia and allodynia” value was “reduces hyperalgesia and allodynia”. For the same molecule, in data set [2], the “effect on mechanical hyperalgesia” value is reported as “inhibits mechanical hyperalgesia”.
